Source: patent US20060063707A1, “Compositions for enhancing memory and methods therefor” (Lifelike Biomatic, Inc., priority 2004, published 2006)
“Also recorded” adds a separate entry of the source.

Tests used:
[1] = system: adult mice hippocampal slices; experiment: LTP induction in hippocampal slices (EPSP slopes in CA1 after theta-burst stimulation); assay type: cell-based
Experimental: Adult mice hippocampal slices were prepared according to standard procedures as described in Dunwiddie and Lynch (J. Physiol. 276:353-367. 1978). Briefly, mice were decapitated following anesthesia, the brains rapidly removed and the hippocampus dissected. Transverse hippocampal slices (400 μm thick) were cut with a McIllwain tissue slicer (Stoelting Co., Wood Dale, Ill.). Slices were pre-incubated for at least 60 min in an artificial cerebrospinal fluid (aCSF) containing (in mM) NaCl (124), KCl (3), KH2PO4 (1.25), MgSO4 (2.5), CaCl2 (3.4), NaHCO3 (26), glucose (10); and L-ascorbate (2) before being placed in a recording chamber. Slices were continuously perfused with aCSF containing no added drug, 20 μM CX546, 2 μM D, L-serine, or a combination of 20 μM CX546 and 2 μM D, L-serine. A stimulating electrode was placed in the stratum radiatum at the junction of CA3 and CA1 and a recording electrode was placed in the stratum radiatum of CA1. Baseline recording with a stimulation frequency of 0.033 Hz was done for at least 10 min. After obtaining a stable baseline for 10 min, LTP was elicited in CA1 stratum radiatum by stimulation of the Schaffer collateral pathways by using high frequency stimulation of 5 bursts of 3 pulses at 100 Hz, with the bursts delivered at the theta frequency, i.e., 5 Hz. Low frequency stimulation was resumed and responses recorded for at least 30 min.
Slopes of the extracellular postsynaptic potentials (EPSPs) were calculated and expressed as percent of the average values recorded during the 10 min baseline period. Results were averaged and expressed as means±s.e.m.
In particular, slices were prepared as cited above and EPSPs were evoked in CA1 stratum radiatum by stimulation of the Schaffer collateral pathways once every 30 seconds. At t=0, high frequency stimulation (5 bursts of 3 pulses at 100 Hz with bursts delivered at 5 Hz) was delivered, and low frequency stimulation resumed. Slopes of EPSPs were calculated and expressed as percent over the average values during the 10 minute baseline. […] The data of FIG. 3 therefore represent the means±s.e.m., of 8 slices for control conditions (●), and 6 slices for the combination of 250 μM piracetam and 2 μM D, L-serine (▪). Results were statistically significant with ANOVA with repeated measures.
Slices were incubated in control medium. LB-302 (100 μM) was added to the medium at t=20 min and LTP was induced as in Example 1 by using high frequency stimulation of 5 bursts of 3 pulses at 100 Hz, with the bursts delivered at the theta frequency, i.e., 5 Hz delivered at t=47 min.

GluR4 flip [2] = molecular target: T1, GluR4 flip (Homo sapiens, UniProt P48058); experiment: Potentiation of L-glutamate mediated currents on HEK cells expressing GluR4 flip (Ornstein et al.); assay type: cell-based
T1 construct: expressed in transfected cells; host or cells: HEK cells
T1 sequence (P48058 21-902): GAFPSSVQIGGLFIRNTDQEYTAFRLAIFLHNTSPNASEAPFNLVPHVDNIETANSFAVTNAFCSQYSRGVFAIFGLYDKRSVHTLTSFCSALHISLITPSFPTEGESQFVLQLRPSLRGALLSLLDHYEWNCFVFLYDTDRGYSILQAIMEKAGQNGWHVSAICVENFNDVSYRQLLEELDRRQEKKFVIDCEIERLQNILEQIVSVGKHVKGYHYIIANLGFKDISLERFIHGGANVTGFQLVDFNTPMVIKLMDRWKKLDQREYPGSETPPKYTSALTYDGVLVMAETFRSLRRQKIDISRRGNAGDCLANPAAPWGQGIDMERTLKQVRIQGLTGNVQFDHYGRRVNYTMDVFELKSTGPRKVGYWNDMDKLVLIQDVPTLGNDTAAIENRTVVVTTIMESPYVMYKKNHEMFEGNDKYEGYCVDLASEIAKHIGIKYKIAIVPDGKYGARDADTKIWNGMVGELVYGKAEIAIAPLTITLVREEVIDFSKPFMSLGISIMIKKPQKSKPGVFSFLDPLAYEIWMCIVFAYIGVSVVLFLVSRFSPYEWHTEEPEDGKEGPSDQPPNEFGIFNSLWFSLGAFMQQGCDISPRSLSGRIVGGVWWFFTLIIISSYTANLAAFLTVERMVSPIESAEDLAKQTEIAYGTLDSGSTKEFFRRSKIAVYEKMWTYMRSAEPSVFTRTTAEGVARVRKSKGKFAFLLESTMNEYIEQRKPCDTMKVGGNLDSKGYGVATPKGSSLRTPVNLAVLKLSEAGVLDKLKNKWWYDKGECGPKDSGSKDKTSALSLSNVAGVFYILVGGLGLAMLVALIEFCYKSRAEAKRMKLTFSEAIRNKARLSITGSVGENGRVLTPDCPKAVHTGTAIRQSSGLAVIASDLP
Experimental: From a study of the structure-activity relationship of the compounds of Ornstein (Ornstein, et al., 2000, ibid), a derivative of LY404187 designated 22h was chosen to provide the ampakine functionality of the new fusion molecule. The structural difference between LY404187 and the 22h derivative is that 22h has an amino substituent on the distal aromatic ring of the biphenyl group instead of a cyano substituent.

LTP = details: agent alone; cited from earlier work
[3] = system: scopolamine-induced learning and memory deficits; experiment: Morris water maze, scopolamine-induced learning deficits (escape latency); assay type: in vivo, Male Wistar rats
Experimental: Learning and memory performance: Learning and memory performances were tested in the conventional Morris water maze according to the following procedure. The Morris maze includes a circular water tank (150 cm in diameter) filled with water and maintained at 27° C. with an escape platform (15 cm in diameter) 18 cm from the perimeter always in the same position 2 cm beneath the surface of the water. The water is made opaque by addition of milk powder rendering the platform invisible.
Male Wistar rats (200-230 g body weight, maintained in standard laboratory conditions) were given a single training session on one day. A training session consists of 4 consecutive trials (T1-T4) in the Morris water maze separated by 60 seconds. For each trial the animal is placed in the maze at one of two starting points equidistant from the escape platform and allowed to find the escape platform. The animal is left on the escape platform for 60 seconds before starting a new trial. […] During the 4 trials the animals start the maze twice from each starting point in a randomly determined order per animal. The time the animal takes to find the escape platform is referred to as the “escape latency.”
Measure of escape latency in control and test animals: The ampakine, the nemdakine, and the combination of ampakine and nemdakine of the present invention were administered p.o. to test animals 60 minutes before a test session in the maze (t=−60 min). Scopolamine was administered i.p. to induce learning and memory deficits 30 minutes later, i.e., 30 minutes before the test session in the maze (t=−30 min). Scopolamine induces amnesia as shown by the failure of scopolamine-treated animals to reduce their escape latencies from trial to trial. […]
The principal measure taken at each trial was the escape latency. Measures consisted in the time the animals took to find the platform and were analyzed by ANOVA with repeated measures. […]

GluR4 flip [4] = molecular target: T1, GluR4 flip; details: HEK cells expressing GluR4 flip; read-out: potentiation of the L-glutamate mediated currents; cited from earlier work
[5] = system: AMPA-induced currents in cerebellar Purkinje cells as well as in hippocampal pyramidal neurons; experiment: Increase of AMPA-induced currents in neurons (Gates et al.); assay type: cell-based
From the text: The ampakine functionality of LB-253-4c is a biarylpropylsulfonamide (Ornstein et al., ibid). […] The new fusion molecule, LB-253-4c, therefore, likely has a different mode of action compared to that of cyclothiazide, a mode of action more directed towards deactivation instead of desensitization.

NC(CO)C(=O)O (racemic) [D, L-serine]
levels of potentiation / responses (EPSP slope) as compared to control slices ([1]; 2 μM D, L-serine alone): did not modify the levels of potentiation; also recorded: did not produce any significant effect

CC(CNS(=O)(=O)C(C)C)c1ccc(-c2ccc(N)cc2)cc1 (centres unmarked) [22h]
activity relative to LY404187 (GluR4 flip [2]): about 2 fold

N[C@H](CO)C(=O)O [D-serine]
concentration known to facilitate LTP (LTP): 10 µM | reversal of scopolamine-induced impairment ([3]; 1000 mg/kg p.o. at t=−60 min, then scopolamine 0.5 mg/kg i.p.): statistically significant reversal of scopolamine-induced impairment

NC(CO)(CC1=CCN(Cc2ccccc2)CC1)C(=O)O (centres unmarked) [LB-302, 2-amino-3-(1-benzyl-1,2,3,6-tetrahydro-pyridin-4-yl)-2-hydroxymethyl-propionic acid]
LTP amplitude ([1]; LB-302 100 μM): dramatic increase in LTP amplitude | baseline response ([1]; LB-302 100 μM): small increase in baseline response

CC(CNS(=O)(=O)C(C)C)c1ccc(-c2ccc(C#N)cc2)cc1 (centres unmarked) [LY404187, N-2-(4-(cyanophenyl)phenyl)propyl-2-propanesulfonamide]
EC50 (GluR4 flip [4]): 290 nM | potency relative to CX546 [5]: about 1000 times

NC(=O)CN1CCCC1=O [piracetam]
effect on the responses (EPSP slope) ([1]; piracetam 250 μM alone): did not produce any significant effect | reversal of scopolamine-induced learning impairment ([3]; 500 mg/kg p.o. at t=−60 min, then scopolamine 0.5 mg/kg i.p.): trend towards a reversal of scopolamine-induced learning impairment, although this effect did not reach statistical significance

CN1[C@@H]2C[C@@H](OC(=O)[C@H](CO)c3ccccc3)C[C@H]1[C@@H]1O[C@@H]12 [scopolamine]
performance (escape latency) across the 4 trials ([3]; scopolamine alone 0.5 mg/kg i.p. at t=−30 min): failed to improve their performance across the 4 trials
